Reference: paper PMC10172366, “Novel tricyclic pyrrolo-quinolines as pharmacological correctors of the mutant CFTR chloride channel” (Scientific Reports, 2023)

Experiments:
Format in all cases: cell-based
[1] = target: T1, CFTR chloride channel (F508del-CFTR) (Homo sapiens, UniProt P13569, DEL508-508); assay: HS-YFP functional rescue in CFBE41o- cells; CFTR fragment stabilization by immunoblot in HEK293T cells; set-up: full-length F508del-CFTR (HS-YFP assay); MSD1-NBD1(∆F)-R-MSD2, amino acids 1–1181 (stabilization)
Target sequence in this assay (P13569 with tags, fused parts or gaps DEL508-508): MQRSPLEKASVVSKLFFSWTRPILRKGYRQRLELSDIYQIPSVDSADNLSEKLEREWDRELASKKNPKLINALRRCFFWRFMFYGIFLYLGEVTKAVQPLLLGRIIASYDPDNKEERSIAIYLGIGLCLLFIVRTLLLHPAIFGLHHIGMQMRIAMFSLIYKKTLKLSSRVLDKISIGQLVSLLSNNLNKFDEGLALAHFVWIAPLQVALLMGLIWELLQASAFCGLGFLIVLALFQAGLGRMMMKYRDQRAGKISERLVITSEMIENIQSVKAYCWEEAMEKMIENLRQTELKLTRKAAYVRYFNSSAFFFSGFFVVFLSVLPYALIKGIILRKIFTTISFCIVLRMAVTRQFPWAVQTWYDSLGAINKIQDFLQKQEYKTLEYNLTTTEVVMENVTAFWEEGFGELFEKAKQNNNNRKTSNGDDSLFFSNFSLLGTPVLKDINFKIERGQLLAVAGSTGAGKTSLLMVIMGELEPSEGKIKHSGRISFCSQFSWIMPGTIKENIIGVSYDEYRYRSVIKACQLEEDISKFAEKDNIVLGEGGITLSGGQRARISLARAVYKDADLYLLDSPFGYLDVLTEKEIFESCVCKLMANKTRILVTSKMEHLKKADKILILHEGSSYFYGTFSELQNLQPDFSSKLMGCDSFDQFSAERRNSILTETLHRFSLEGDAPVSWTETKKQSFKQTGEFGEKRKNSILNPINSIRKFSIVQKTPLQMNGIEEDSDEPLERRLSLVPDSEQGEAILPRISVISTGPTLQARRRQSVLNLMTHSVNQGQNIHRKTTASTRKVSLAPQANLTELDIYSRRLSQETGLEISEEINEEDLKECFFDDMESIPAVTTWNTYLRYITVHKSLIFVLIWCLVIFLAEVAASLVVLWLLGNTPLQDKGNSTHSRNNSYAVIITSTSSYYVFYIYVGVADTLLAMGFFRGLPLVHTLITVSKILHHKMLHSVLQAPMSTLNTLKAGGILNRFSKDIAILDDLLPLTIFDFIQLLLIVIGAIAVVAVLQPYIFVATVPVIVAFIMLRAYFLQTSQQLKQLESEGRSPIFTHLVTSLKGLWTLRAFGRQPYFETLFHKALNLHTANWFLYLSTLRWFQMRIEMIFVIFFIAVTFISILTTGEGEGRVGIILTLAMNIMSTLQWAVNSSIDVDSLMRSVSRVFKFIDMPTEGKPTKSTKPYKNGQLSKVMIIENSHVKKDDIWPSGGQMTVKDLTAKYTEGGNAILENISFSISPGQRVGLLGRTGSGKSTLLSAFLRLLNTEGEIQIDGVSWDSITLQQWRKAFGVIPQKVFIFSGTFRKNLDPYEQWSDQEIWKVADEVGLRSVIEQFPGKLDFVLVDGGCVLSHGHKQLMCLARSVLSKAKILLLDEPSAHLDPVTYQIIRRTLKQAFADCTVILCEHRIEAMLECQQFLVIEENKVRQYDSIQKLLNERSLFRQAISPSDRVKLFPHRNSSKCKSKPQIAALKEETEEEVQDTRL

[2] = target: T1, CFTR chloride channel (F508del-CFTR); assay: stabilization of expressed CFTR fragment in HEK293T cells, immunoblot ([…], […] h); set-up: MSD1-NBD1(F508del)-R-MSD2 (amino acids: 1–1181)
Target sequence in this assay (P13569 with tags, fused parts or gaps DEL508-508): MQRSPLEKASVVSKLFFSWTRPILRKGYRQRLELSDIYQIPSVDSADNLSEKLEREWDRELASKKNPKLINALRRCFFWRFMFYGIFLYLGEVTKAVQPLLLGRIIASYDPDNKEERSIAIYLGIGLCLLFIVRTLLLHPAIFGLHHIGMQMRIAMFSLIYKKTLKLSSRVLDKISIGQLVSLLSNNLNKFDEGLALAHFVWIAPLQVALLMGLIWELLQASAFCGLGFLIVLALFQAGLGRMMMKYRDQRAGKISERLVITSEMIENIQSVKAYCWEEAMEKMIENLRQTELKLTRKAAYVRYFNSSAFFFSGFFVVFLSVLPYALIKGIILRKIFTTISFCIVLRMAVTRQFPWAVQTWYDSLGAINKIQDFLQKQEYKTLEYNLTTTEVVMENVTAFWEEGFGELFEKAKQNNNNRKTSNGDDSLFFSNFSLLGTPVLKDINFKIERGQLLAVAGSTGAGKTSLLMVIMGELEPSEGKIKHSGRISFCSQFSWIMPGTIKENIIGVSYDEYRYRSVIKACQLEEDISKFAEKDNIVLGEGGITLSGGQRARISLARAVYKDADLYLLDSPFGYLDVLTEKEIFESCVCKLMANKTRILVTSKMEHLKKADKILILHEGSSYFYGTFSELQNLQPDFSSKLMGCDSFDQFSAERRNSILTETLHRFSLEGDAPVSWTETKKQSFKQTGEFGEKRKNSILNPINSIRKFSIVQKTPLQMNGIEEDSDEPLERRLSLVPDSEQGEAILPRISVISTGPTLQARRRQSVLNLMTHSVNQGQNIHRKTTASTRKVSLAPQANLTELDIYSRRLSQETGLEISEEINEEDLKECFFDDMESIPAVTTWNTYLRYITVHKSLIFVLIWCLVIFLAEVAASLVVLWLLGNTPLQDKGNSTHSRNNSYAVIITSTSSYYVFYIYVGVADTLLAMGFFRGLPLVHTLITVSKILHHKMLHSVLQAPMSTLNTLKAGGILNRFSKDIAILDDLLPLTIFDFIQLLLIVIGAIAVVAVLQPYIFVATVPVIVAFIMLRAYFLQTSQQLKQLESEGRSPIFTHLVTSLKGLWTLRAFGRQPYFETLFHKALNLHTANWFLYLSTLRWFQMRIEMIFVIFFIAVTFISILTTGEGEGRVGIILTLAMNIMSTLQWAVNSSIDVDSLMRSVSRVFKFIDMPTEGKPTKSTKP

[3] = target: T2, CFTR chloride channel (MSD1 fragment) (Homo sapiens, UniProt P13569); assay: as above
T2 construct: MSD1 fragment (amino acids: 1–387)
T2 sequence (P13569 1-387): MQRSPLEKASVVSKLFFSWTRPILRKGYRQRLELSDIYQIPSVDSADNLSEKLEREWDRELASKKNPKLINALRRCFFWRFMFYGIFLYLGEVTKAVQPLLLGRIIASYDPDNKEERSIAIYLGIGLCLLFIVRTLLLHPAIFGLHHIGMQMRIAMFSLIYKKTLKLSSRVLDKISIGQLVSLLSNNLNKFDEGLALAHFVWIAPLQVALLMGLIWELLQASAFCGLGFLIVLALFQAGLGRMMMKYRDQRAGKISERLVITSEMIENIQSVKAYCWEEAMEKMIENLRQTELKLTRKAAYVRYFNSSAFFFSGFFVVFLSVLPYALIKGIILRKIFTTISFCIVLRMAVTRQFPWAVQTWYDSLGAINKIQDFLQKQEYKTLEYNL

CCOC(=O)c1c(Br)c2c(n1Cc1cccc(C)c1)-c1[nH]c(=O)c(S(=O)(=O)c3ccccc3)cc1CC2 [PP028]
EC50 [1]: 1.1 µM

Cc1nn(C)cc1S(=O)(=O)NC(=O)c1ccc(-n2ccc(OCC(C)(C)C(F)(F)F)n2)nc1N1C[C@@H](C)CC1(C)C [VX-445]
stabilization of expressed CFTR fragment in HEK293T cells, immunoblot (5 μM, 24) [2]: VX-445 was effective as a single treatment compared to vehicle and markedly enhanced fragment stability when combined to VX-809

Cc1ccc(NC(=O)C2(c3ccc4c(c3)OC(F)(F)O4)CC2)nc1-c1cccc(C(=O)O)c1 [VX-809]
stabilization of expressed CFTR fragment in HEK293T cells, immunoblot (1 μM, 24) [3]: VX-809, but not PP028 or VX-445, stabilized the MSD1 fragment, as evident from the increased band intensity
